From the PolyMetriX glass transition set

Molecule `*OS(=O)(=O)c1cccc(S(=O)(=O)Oc2ccc(C3(c4ccc(*)cc4)CCCCC3)cc2)c1` (repeat unit) has a glass transition temperature of 127.00 °C.
`*O[Si](Oc1ccc(C2(c3ccc(*)cc3)c3ccccc3-c3ccccc32)cc1)(c1ccccc1)c1ccccc1` (repeat unit) gave a glass transition temperature of 166.00 °C.
`*Oc1c(C)cc(-c2cc(C)c(Oc3ccc(C(=O)c4ccc(*)cc4)cc3)c(CBr)c2)cc1CBr` (repeat unit) gave a glass transition temperature of 158.17 °C.
With `*Oc1c(F)c(F)c(COC(c2cccc(C(OCc3c(F)c(F)c(Oc4ccc(Cc5ccc(*)cc5)cc4)c(F)c3F)(C(F)(F)F)C(F)(F)F)c2)(C(F)(F)F)C(F)(F)F)c(F)c1F` (repeat unit) the glass transition temperature was 94.00 °C.
For `*Oc1cc(C(C)(C)C)c(Oc2ccc(C(=O)Nc3ccc(C(c4ccc(NC(=O)c5ccc(*)cc5)cc4)(C(F)(F)F)C(F)(F)F)cc3)cc2)cc1C(C)(C)C` (repeat unit), the glass transition temperature was 268.00 °C.
Molecule `*Oc1cc(C)c(C(c2cc(C(C)C)c(Oc3ccc(C(=O)c4ccc(*)cc4)cc3)cc2C)c2ccccc2C(=O)O)cc1C(C)C` (repeat unit) has a glass transition temperature of 228.00 °C.
For `*Oc1ccc(-c2ccc(Oc3ccc4ccccc4c3-c3c(*)ccc4ccccc34)c3ccccc23)c2ccccc12` (repeat unit), the glass transition temperature was 301.00 °C.
Work on `*Oc1ccc(-c2ccc(Oc3cccc(*)n3)cc2)cc1` (repeat unit) yielded a glass transition temperature of 119.00 °C.
For `*Oc1ccc(/C(=C/c2ccc(-c3ccc(/C=C(\c4ccccc4)c4ccc(OC(=O)c5ccc(C(*)=O)cc5)cc4)cc3)cc2)c2ccccc2)cc1` (repeat unit), the glass transition temperature was 236.00 °C.
`*Oc1ccc(/C(=C/c2ccc(-c3ccc(/C=C(\c4ccccc4)c4ccc(OC(=O)c5cccc(C(*)=O)c5)cc4)cc3)cc2)c2ccccc2)cc1` (repeat unit) gave a glass transition temperature of 224.00 °C.
With `*Oc1ccc(/N=N/c2ccc(Cc3ccc(/N=N/c4ccc(OC(=O)c5ccc(/N=N/c6ccc(C(*)=O)cc6)cc5)cc4)cc3[N+](=O)[O-])c([N+](=O)[O-])c2)cc1` (repeat unit) the glass transition temperature was 160.00 °C.
In the case of `*Oc1ccc(C(=C(Cl)Cl)c2ccc(OC(*)=O)cc2)cc1` (repeat unit), the glass transition temperature was 167.00 °C.
`*Oc1ccc(C(c2ccc(OC(*)=O)cc2)C2CC3CC2C2C4CCC(C4)C32)cc1` (repeat unit) showed a glass transition temperature of 253.00 °C.
For `*Oc1ccc(C(c2ccc(OC(*)=O)cc2)C2CCCCC2)cc1` (repeat unit), the glass transition temperature was 190.00 °C.
Work on `*Oc1ccc(C(c2ccc(OC(*)=S)cc2)c2cccc3ccccc23)cc1` (repeat unit) yielded a glass transition temperature of 191.00 °C.
For `*Oc1ccc(C(c2ccc(OC(=O)c3ccc(Oc4ccc(C(*)=O)cc4)cc3)cc2)(C(F)(F)F)C(F)(F)F)cc1` (repeat unit), the glass transition temperature was 181.00 °C.
`*Oc1ccc(C(c2ccccc2)(c2ccccc2)c2ccc(OC(*)=O)cc2)cc1` (repeat unit) showed a glass transition temperature of 213.00 °C.
In the case of `*Oc1ccc(C(c2ccccc2)(c2ccccc2)c2ccc(Oc3ccc4c(=O)n5c6cc(-c7ccc8c(c7)nc7c9ccc(*)c%10cccc(c(=O)n87)c%109)ccc6nc5c5cccc3c45)cc2)cc1` (repeat unit), the glass transition temperature was 357.00 °C.
`*Oc1ccc(C2(c3ccc(OC(*)=O)c(Cl)c3)CCCCC2)cc1Cl` (repeat unit) showed a glass transition temperature of 179.00 °C.
`*Oc1ccc(C2(c3ccc(OC(*)=O)cc3)CC3CCC2C3)cc1` (repeat unit) gave a glass transition temperature of 235.00 °C.
Molecule `*Oc1ccc(C2(c3ccc(OC(*)=O)cc3)CCCCCC2)cc1` (repeat unit) has a glass transition temperature of 155.00 °C.
Work on `*Oc1ccc(C2(c3ccc(OC(*)=O)cc3)CCc3ccccc32)cc1` (repeat unit) yielded a glass transition temperature of 219.00 °C.
`*Oc1ccc(C2(c3ccc(OC(=O)C45CC6CC(CC(C(*)=O)(C6)C4)C5)cc3)c3ccccc3-c3ccccc32)cc1` (repeat unit) showed a glass transition temperature of 335.00 °C.
`*Oc1ccc(C2(c3ccc(OC(=O)c4ccc(C(*)=O)cc4)cc3)CCC3CCCCC3C2)cc1` (repeat unit) showed a glass transition temperature of 275.00 °C.
Molecule `*Oc1ccc(C2(c3ccc(OC(=O)c4ccc(C(*)=O)cc4)cc3)CCCCC2)cc1` (repeat unit) has a glass transition temperature of 275.00 °C.
Work on `*Oc1ccc(C2(c3ccc(OC(=O)c4ccc(C(*)=O)cc4)cc3)c3ccccc3C(=O)c3ccccc32)cc1` (repeat unit) yielded a glass transition temperature of 400.00 °C.
In the case of `*Oc1ccc(C2(c3ccc(OC(=O)c4cccc(C(*)=O)c4)cc3)CCC3CCCCC3C2)cc1` (repeat unit), the glass transition temperature was 248.00 °C.
With `*Oc1ccc(Cc2ccc(Cc3ccc(OC(*)=O)cc3)cc2)cc1` (repeat unit) the glass transition temperature was 79.50 °C.
For `*Oc1ccc(Cc2ccc(OC(*)=S)cc2)cc1` (repeat unit), the glass transition temperature was 95.00 °C.
Work on `*Oc1ccc(Oc2ccc(C(=O)Nc3ccc(Oc4ccc(-c5ccc(Oc6ccc(NC(=O)c7ccc(*)cc7)cc6)cc5)cc4)cc3)cc2)cc1C` (repeat unit) yielded a glass transition temperature of 220.00 °C.
`*Oc1ccc(Oc2ccc(C(=O)c3ccc(-c4ccc(C(=O)c5ccc(*)cc5)cc4)cc3)cc2)cc1-c1ccc(S(=O)(=O)O)c(C)c1` (repeat unit) showed a glass transition temperature of 182.00 °C.
`*Oc1ccc(Oc2ccc(C(=O)c3cccc4cccc(C(=O)c5ccc(*)cc5)c34)cc2)cc1C(C)(C)C` (repeat unit) showed a glass transition temperature of 230.00 °C.
In the case of `*Oc1ccc(Oc2ccc(S(=O)(=O)c3ccc(Oc4ccc(C(=O)c5ccc(*)cc5)cc4)cc3)cc2)cc1` (repeat unit), the glass transition temperature was 186.00 °C.
`*Oc1ccc(S(=O)(=O)c2ccc(Oc3ccc(-c4ccc(Oc5ccc(C(=O)c6ccc(*)cc6)cc5)cc4)cc3)cc2)cc1` (repeat unit) gave a glass transition temperature of 206.00 °C.
`*Oc1cccc(Oc2ccc(-c3ccc(*)cc3)cc2)c1C#N` (repeat unit) gave a glass transition temperature of 210.00 °C.
Work on `*c1ccc(Cc2ccc(N3C(=O)c4ccc(Oc5ccc(C6(c7ccc(Oc8ccc9c(c8)C(=O)N(*)C9=O)cc7)CCC(c7ccccc7)CC6)cc5)cc4C3=O)cc2)cc1` (repeat unit) yielded a glass transition temperature of 232.00 °C.
In the case of `*c1ccc(Cc2ccc(N3C(=O)c4ccc(Oc5ccc(C6(c7ccc(Oc8ccc9c(c8)C(=O)N(*)C9=O)cc7)CCCCCCCCCCC6)cc5)cc4C3=O)cc2)cc1` (repeat unit), the glass transition temperature was 240.00 °C.
Molecule `*c1ccc(OC(=O)Oc2ccc(C3(*)OC(=O)c4ccccc43)cc2)cc1` (repeat unit) has a glass transition temperature of 252.20 °C.
`*c1ccc(OC(=O)c2ccc(C(=O)Oc3ccc(C4(*)OCc5ccccc54)cc3)cc2)cc1` (repeat unit) gave a glass transition temperature of 312.00 °C.
In the case of `*c1ccc(OC(=O)c2ccc(C(=O)Oc3ccc(C4(*)c5ccccc5Oc5ccccc54)cc3)cc2)cc1` (repeat unit), the glass transition temperature was 252.00 °C.
In the case of `*c1ccc(OC(=O)c2ccc([Si](c3ccccc3)(c3ccccc3)c3ccc(C(=O)Oc4ccc(C5(*)OC(=O)c6ccccc65)cc4)cc3)cc2)cc1` (repeat unit), the glass transition temperature was 250.00 °C.
In the case of `*c1ccc(OC(=O)c2cccc(C(=O)Oc3ccc(-c4nc5ccccc5nc4*)cc3)c2)cc1` (repeat unit), the glass transition temperature was 245.00 °C.
`*c1ccc(OC(=O)c2cccc(C(=O)Oc3ccc(C4(*)C(=O)Nc5c(Cl)cc(Cl)cc54)cc3)c2)cc1` (repeat unit) gave a glass transition temperature of 270.00 °C.
In the case of `*c1ccc(Oc2cc(C(C)(C)C)c(Oc3ccc(N4C(=O)c5ccc(-c6ccc7c(c6)C(=O)N(*)C7=O)cc5C4=O)cc3)cc2C(C)(C)C)cc1` (repeat unit), the glass transition temperature was 293.00 °C.
`*c1ccc(Oc2cc(C(C)(C)C)c(Oc3ccc(N4C(=O)c5ccc(Oc6ccc7c(c6)C(=O)N(*)C7=O)cc5C4=O)cc3)cc2C(C)(C)C)cc1` (repeat unit) gave a glass transition temperature of 242.00 °C.
Work on `*c1ccc(Oc2cc(C(C)(C)C)ccc2Oc2ccc(-n3c(=O)c4cc5c(=O)n(*)c(=O)c5cc4c3=O)cc2)cc1` (repeat unit) yielded a glass transition temperature of 321.00 °C.
With `*c1ccc(Oc2cc(C(C)(C)C)ccc2Oc2ccc(N3C(=O)c4ccc(-c5ccc6c(c5)C(=O)N(*)C6=O)cc4C3=O)cc2)cc1` (repeat unit) the glass transition temperature was 257.00 °C.
For `*c1ccc(Oc2ccc(-c3ccc(Oc4ccc(N5C(=O)c6ccc(Oc7ccc(C(c8ccc(Oc9ccc%10c(c9)C(=O)N(*)C%10=O)cc8)(C(F)(F)F)C(F)(F)F)cc7)cc6C5=O)cc4)cc3)cc2)cc1` (repeat unit), the glass transition temperature was 217.00 °C.
For `*c1ccc(Oc2ccc(C3(c4ccc(Oc5ccc(N6C(=O)c7ccc(Oc8ccc(C9(c%10ccc(Oc%11ccc%12c(c%11)C(=O)N(*)C%12=O)cc%10)CCC(c%10ccccc%10)CC9)cc8)cc7C6=O)cc5)cc4)CC4CC3C3CCCC43)cc2)cc1` (repeat unit), the glass transition temperature was 255.00 °C.
`*c1ccc(Oc2ccc(N3C(=O)c4ccc(Oc5ccc(C(=O)c6ccc(Oc7ccc8c(c7)C(=O)N(*)C8=O)cc6)cc5)cc4C3=O)cc2)cc1` (repeat unit) showed a glass transition temperature of 210.00 °C.
For `*c1ccc(Oc2ccc(Oc3ccc(N4C(=O)c5ccc(Oc6ccc(C(c7ccccc7)(c7ccccc7)c7ccc(Oc8ccc9c(c8)C(=O)N(*)C9=O)cc7)cc6)cc5C4=O)cc3)c(C(C)(C)C)c2)cc1` (repeat unit), the glass transition temperature was 229.00 °C.
In the case of `*c1ccc(Oc2ccc(Oc3ccc(N4C(=O)c5ccc(Oc6ccc(C7(c8ccc(Oc9ccc%10c(c9)C(=O)N(*)C%10=O)cc8)CCC(C(C)(C)C)CC7)cc6)cc5C4=O)cc3)c(C(C)(C)C)c2)cc1` (repeat unit), the glass transition temperature was 233.00 °C.
Molecule `*c1ccc(Oc2ccc(Oc3ccc(Oc4ccc(-c5cnc6cc(-c7ccc8nc(*)cnc8c7)ccc6n5)cc4)cc3)cc2)cc1` (repeat unit) has a glass transition temperature of 133.00 °C.
Molecule `*c1ccc(Oc2cccc(Oc3ccc(N4C(=O)c5ccc(-c6ccc7c(c6)C(=O)N(*)C7=O)cc5C4=O)cc3)c2C#N)cc1` (repeat unit) has a glass transition temperature of 271.00 °C.
Molecule `*c1ccc(Oc2cccc(Oc3ccc(N4C(=O)c5ccc(Oc6ccc(-c7ccc(Oc8ccc9c(c8)C(=O)N(*)C9=O)cc7)cc6)cc5C4=O)cc3)c2)cc1` (repeat unit) has a glass transition temperature of 205.00 °C.
With `*c1ccc2c(c1)C(=O)N(c1ccc(Oc3ccc(N4C(=O)c5ccc(C(*)(C(F)(F)F)C(F)(F)F)cc5C4=O)cc3)c(OCCN(CC)c3ccc(/N=N/c4ccc([N+](=O)[O-])cc4)cc3)c1)C2=O` (repeat unit) the glass transition temperature was 202.00 °C.
`*c1cccc(N2C(=O)c3ccc(Oc4ccc(-c5ccc(Oc6ccc7c(c6)C(=O)N(*)C7=O)cc5)cc4)cc3C2=O)c1` (repeat unit) showed a glass transition temperature of 247.00 °C.
